# Test results from PMC7112222, “Investigation of pyrimidine nucleoside analogues as chemical probes to assess compound effects on the proliferation of Trypanosoma cruzi intracellular parasites” (PLoS Neglected Tropical Diseases, 2020).
# Structures can show the parent of a compound that is named as a salt. Where two headings read alike, the source gives them in different places.
# What was measured:
# [1] = test system: T. cruzi intracellular amastigotes; design: method as in PMID 27120069; settings: treatment for 48 hours; cited from earlier work
# 3T3 cells = test: Image-based assay, effect on 3T3 host cells; assay type: cell-based; settings: for Host cell 3T3 IC50 value 48 h: highest test concentration 183 μM
# Method: (§1) Parasites and host cells were maintained as outlined previously. Briefly, host 3T3 fibroblasts (ATCC, CCL-92) were grown in RPMI medium (Thermo Fisher Scientific, USA) with no phenol red, supplemented with 10% FBS (Thermo Fisher Scientific, USA) and incubated at 37°C in 5% CO2. Host cells were harvested at 70% confluency and were split every 2–3 days in 175 cm^2 flasks. 3T3 cells were cultured up to passage 7 as contact inhibition was reduced or lost at higher passages. Prior to infection with T. cruzi trypomastigotes, host cells were seeded at 1.2 x 10^6 cells in 75 cm^2 or 4 x 10^5 cells in 25 cm^2 flasks and grown for 24 hours before parasite addition. Parasites were added at a multiplicity of infection (MOI) of 10:1 and incubated for 24 hours before non-infected trypomastigotes were washed off the host cell bed with PBS supplemented with Ca^2+ and Mg^2+ (Thermo Fisher Scientific, USA). Incubation was continued for a further 3 days, until tissue culture trypomastigotes began to egress from host cells. Egressed parasites were used for assays or to continue the infective life cycle in vitro.
# […] Briefly, 14-point serial dilutions of the compounds in 100% DMSO were prepared and then further diluted in sterile water at a ratio of 1:21 compound: water. Five microliters of the diluted compounds were added to wells of T. cruzi infected host cells, using a MiniTrak compound handling device (Perkin Elmer, USA) with final concentrations in the plate ranging from 183 μM to 4.6 x 10^−4 μM. All experiments were performed with two separate biological replicates.
# Image analysis was performed with a script developed in Columbus software (CHEMICAL LABEL INCORPORATION SCRIPT). Control wells were also imaged at an increased, 60x magnification to show the distribution of staining and the structure of the parasites within host cells. Eight background control wells consisted of infected host cells, fixed and exposed to Hoechst and the click chemistry cocktail, without the addition of the chemical probe EdU. […] The percentage activity of compounds against parasite number / infected cells (identified with Hoechst) was calculated against a positive control of 12 μM of NFX for the parasite and 30 μM of PURO the host cells; and a negative control of 0.47% DMSO. All images taken were not modified and were taken on an Opera, confocal image-based reader.
# T. cruzi amastigote DNA = test: Incorporation of pyrimidine nucleoside analogues into T. cruzi amastigote DNA (click chemistry, colocalisation with Hoechst); assay type: cell-based, Trypanosoma cruzi
# Method: T. cruzi infected 3T3 fibroblasts were initially exposed to nucleoside analogues for 48 hours at concentrations ranging from 73 μM to 1.8 x10^-4 μM. Host cell, parasite and compound additions were carried out as previously described. Cells were then stained using a click chemistry azide cocktail, followed by Hoechst to identify nuclear material, as previously reported. The freshly prepared azide cocktail consisted of a final concentration of 5 μM of Alexa Fluor 488 azide (Thermo Fisher Scientific, USA), 1 mM copper sulfate (Sigma Aldrich, USA) and 100 mM sodium ascorbate (Sigma Aldrich, USA), in DPBS. Wells were imaged on an Opera image-based reader (Perkin Elmer, USA) at 20x magnification with 405 nm (defined as Hoechst channel) and 488 nm (defined as Alexa 488 channel) lasers using filter sets/bandwidth (emission) of 450/50 nm and 540/75 nm, respectively. To determine nucleoside analogue incorporation into T. cruzi amastigote DNA, a script was developed utilising the Columbus (PerkinElmer, USA) image-based analysis and data handling platform (CHEMICAL LABEL INCORPORATION SCRIPT). Nucleoside analogues were also tested for DNA incorporation following 2, 4 and 24 hours exposure, at the same concentrations. All experiments were performed in duplicate. The colocalisation of nucleoside analogues and Hoechst (replicating parasites) at each time point (48, 4 and 2 hours) was compared using GraphPad Prism 5.
# A CHEMICAL LABEL INCORPORATION SCRIPT developed in Columbus firstly identified Hoechst stained parasites within host cells by spot analysis, utilizing the same building block analysis as we had previously developed to determine T. cruzi infected cells. The physical definition of amastigote DNA was identified by Hoechst, with the only modification being that as there was no cytoplasmic marker, thus segmentation borders in the Hoechst channel were applied, which effectively separated host cells (Fig 2). Further building blocks were added to calculate the intensity of Alexa Fluor 488 within the spots identified by Hoechst, in infected cells. This script was first applied to images to determine the mean fluorescence intensity in the Alexa 488 channel of Hoechst identified parasites, without the addition of the chemical label. The mean plus three times the standard deviation of this intensity was used to define values above background, thus the minimum intensity above background required to identify parasite DNA which successfully incorporated the chemical label. An input box was incorporated into the script, in which this minimum intensity above background was entered. Parameters of the developed script, “CHEMICAL LABEL INCORPORATION” are shown in S1 Table.
# • Number of T. cruzi amastigote infected cells (≥5 parasites per cell, identified with Hoechst). • Number of Hoechst identified T. cruzi parasites (in infected cells). • Number of parasites incorporating chemical label (T. cruzi parasites with Alexa 488 intensity above background, in infected cells). • % chemical label incorporation. Alexa 488 spots in infected cells (above background) NO / Hoechst spots in infected cells NO *100 = Percentage colocalisation; where NO = number of objects. • Number of host cells.
# [2] = test system: T. cruzi intracellular amastigotes; test: Image-based assay of the number of T. cruzi infected cells (intracellular amastigotes in 3T3 host cells); assay type: cell-based, Trypanosoma cruzi; settings: for inhibition at 183 µM / IC50 / Emax: Trypanosoma cruzi
# Method: as §1
# The activity of the nucleoside analogues against T. cruzi intracellular amastigotes following 24, 48 hours exposure and compound wash off, was determined using image-based techniques as previously described. Briefly, 14-point serial dilutions of the compounds in 100% DMSO were prepared and then further diluted in sterile water at a ratio of 1:21 compound: water. Five microliters of the diluted compounds were added to wells of T. cruzi infected host cells, using a MiniTrak compound handling device (Perkin Elmer, USA) with final concentrations in the plate ranging from 183 μM to 4.6 x 10^−4 μM. All experiments were performed with two separate biological replicates.
# IC50 values for inhibitory activity of both the nucleoside analogues tested as DNA probes and known inhibitors tested to determine their effect on replication of T. cruzi were calculated in GraphPad Prism 5, using sigmoidal dose response with variable slope. […] The p-value for difference in the % activity at Emax concentrations for compounds with known activity (EdU identified parasites, compared to Hoechst identified parasites) against T. cruzi was determined using GraphPad Prism 5, using an unpaired student’s t-test. […] The Emax for each compound was at least two data points in from the beginning of the plateau of activity in the IC50 curve, as previously described.
# [3] = test system: T. cruzi intracellular amastigotes; test: as above; assay type: cell-based, Trypanosoma cruzi; settings: 2 and 4 hour exposures; 73 μM
# HEK293 cells = test: Redox-based assay to assess HEK293 viability; assay type: cell-based, human; settings: 48 hours exposure; highest test concentration 87 μM; EdU value estimated, relative to Emax plateau of 57%
# Method: To determine the effect of the nucleoside analogues against a replicating mammalian cell line, analogues were tested against HEK293 cells, utilising a REDOX-based metabolic assay to assess cell viability as previously described. […] Experiments were performed over two biological replicates.
# [4] = test system: T. cruzi intracellular amastigotes; test: Detection of T. cruzi replication following exposure to inhibitors (EdU incorporation vs Hoechst); assay type: cell-based, Trypanosoma cruzi; settings: Trypanosoma cruzi; for IC50: 48 hours exposure, mean ± SD
# Method: The addition of host cells, parasites and compounds were as described for the T. cruzi image based method previously reported. […] Addition of nuclear and cytoplasmic dyes was undertaken as previously reported and images captured on an Opera confocal image-based system at 20x magnification. Image analysis was performed with a script developed in Columbus software (CHEMICAL LABEL INCORPORATION SCRIPT). Control wells were also imaged at an increased, 60x magnification to show the distribution of staining and the structure of the parasites within host cells. Eight background control wells consisted of infected host cells, fixed and exposed to Hoechst and the click chemistry cocktail, without the addition of the chemical probe EdU. […] All images taken were not modified and were taken on an Opera, confocal image-based reader.
# [5] = 24 hours exposure, highest test concentration 183 μM, read-out: T. cruzi 24 IC50 value
# [6] = 24 hours exposure, read-out: T. cruzi 24 relative Emax (in brackets) (converted)
# [7] = 48 hours incubation, highest test concentration 183 μM, read-out: T. cruzi 48 IC50 value
# [8] = 48 hours incubation, read-out: T. cruzi 48 relative Emax (in brackets) (converted)
compound,measurement,setting,value
"CN1CCC[C@@H]1CCO[C@](C)(c1ccccc1)c1ccc(Cl)cc1 [CF, clemastine fumarate]","T. cruzi infected cells, identified with Hoechst, remaining",[1],3%
"C#Cc1cn([C@H]2C[C@H](O)[C@@H](CO)O2)c(=O)nc1N [EdC, 5-ethynyl-2′-deoxy-cytidine]",activity against host cells after short exposure,"3T3 cells; 2 and 4 hour exposures, 73 μM",less than 20%
same,Host cell 3T3 IC50 value 48 h,3T3 cells,NA (NA = ≤50% activity at the highest concentration tested and an IC50 value could not be determined)
same,activity against 3T3 cells in the image-based assay,3T3 cells; 48 hours,< 20%
same,% of parasites with incorporation,"T. cruzi amastigote DNA; 2 hours, 37 μM",71 ± 2.9%
same,% of parasites with incorporation,"T. cruzi amastigote DNA; 4 hours, 7.3 μM",84 ± 3.5%
same,incorporation into T. cruzi DNA following 48 hours incubation (in words),T. cruzi amastigote DNA,incorporated
same,% of cells that incorporated the DNA chemical label,"T. cruzi amastigote DNA; 48 hours, 0.73 μM",89 ± 2.7%
same,SI (selectivity index to T. cruzi intracellular amastigotes in relation to HEK293 cells),[2]; 48 hours exposure,> 26
same,inhibition at 183 µM,"[2]; at 183 μM, 48 hours incubation, wash off, further 72 hours, read-out: T. cruzi Wash off percentage inhibition at the highest test concentration",90%
same,IC50,[2]; [5],12500 ± 2000 nM
same,Emax,[2]; [6],69%
same,IC50,[2]; [7],7100 ± 3700 nM
same,Emax,[2]; [8],87%
same,activity against T. cruzi amastigote growth after short exposure,[3],less than 20%
same,HEK293 IC50 value,HEK293 cells,NA (NA = ≤50% activity at the highest concentration tested and an IC50 value could not be determined)
"C#Cc1cn([C@@H]2O[C@H](CO)[C@@H](O)[C@@H]2I)c(=O)[nH]c1=O [I-ara-EdU, (2′S)-2′-deoxy-5-ethynyl-2′-iodo-uridine]",Host cell 3T3 IC50 value 48 h,3T3 cells,NA (NA = ≤50% activity at the highest concentration tested and an IC50 value could not be determined)
same,incorporation into T. cruzi DNA following 48 hours incubation (in words),T. cruzi amastigote DNA,did not
same,incorporation (no incorporation observed),"T. cruzi amastigote DNA; 48 hours, concentrations up to a maximum of 73 μM",< 20%
same,T. cruzi 24 IC50 value,"[2]; 24 hours exposure, highest test concentration 183 μM",NA (NA = ≤50% activity at the highest concentration tested and an IC50 value could not be determined)
same,T. cruzi Wash off IC50 value,"[2]; 48 hours incubation, compound wash off, further 72 hours without compound, highest test concentration 183 μM",NA (NA = ≤50% activity at the highest concentration tested and an IC50 value could not be determined)
same,T. cruzi 48 IC50 value,"[2]; 48 hours incubation, highest test concentration 183 μM",NA (NA = ≤50% activity at the highest concentration tested and an IC50 value could not be determined)
same,inhibition at 183 µM,"[2]; 48 h, 183 μM, 48 hours incubation, read-out: inhibition of T. cruzi growth at highest test concentration",≤ 50%
same,HEK293 IC50 value,HEK293 cells,NA (NA = ≤50% activity at the highest concentration tested and an IC50 value could not be determined)
"CC1CS(=O)(=O)CCN1/N=C/c1ccc([N+](=O)[O-])o1 (centres unmarked) [NFX, nifurtimox]",Host cell 3T3 IC50 value 48 h,3T3 cells,NA (NA = ≤50% activity at the highest concentration tested and an IC50 value could not be determined)
same,SI (selectivity index to T. cruzi intracellular amastigotes in relation to HEK293 cells),[2]; 48 hours exposure,> 143
same,IC50,"[2]; read-out: IC50 value of positive assay control in the 2 and 4 hour exposure experiment, control exposure for 48 hours",1000 ± 101 nM
same,IC50,[2]; [5],1720 ± 860 nM
same,Emax,[2]; [6],100%
same,IC50,"[2]; 48 hours exposure, well-established intracellular infection assay, mean ± SD, POSA value based on sub-optimal effect (Emax 75%), read-out: IC50 value Infected cells (Hoechst)",800 ± 90 nM
same,IC50,"[2]; 48 hours incubation, compound wash off, further 72 hours without compound, highest test concentration 183 μM, read-out: T. cruzi Wash off IC50 value",1410 ± 1080 nM
same,Emax,"[2]; 48 hours incubation, wash off, further 72 hours without compound, read-out: T. cruzi Wash off relative Emax (in brackets) (converted)",100%
same,IC50,[2]; [7],970 ± 26 nM
same,Emax,[2]; [8],100%
same,HEK293 IC50 value,HEK293 cells,NA (NA = ≤50% activity at the highest concentration tested and an IC50 value could not be determined)
same,inhibition at 63 µM,"[4]; 2 h, read-out: mean inhibition of incorporation of EdU into the parasite DNA",57 ± 9.1%
same,IC50,"[4]; then 0.37 μM EdU for 4 hours, number of EdU incorporating parasites, read-out: IC50 value Amastigotes (EdU)",210 ± 1.8 nM
same,IC50,"[4]; number of Hoechst identified parasites in infected cells, read-out: IC50 value Amastigotes (Hoechst)",320 ± 24 nM
